# Source: PubChem BioAssay AID2060605 (Molecular Pharmacology Branch, DTP, NCI, 2025)
# System: 947758-054-R-J2-PDC spheroid growth, percent test/control
# Experiment: Anticancer human tumor 947758-054-R-J2-PDC patient-derived colon adenocarcinoma cell line growth inhibition [CLK]
# Details: spheroids with HUVEC and MSC; for IC50: curve of first compound; for viability, T/C: stronger effect = lower value
# Summary of the method: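 Patient-derived tumor cells grown as complex spheroids with HUVEC endothelial cells and mesenchymal stem cells, treated with drug combinations. Concentrations descend in half-log steps from near clinical Cmax, or from 10 microM if Cmax unknown.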
# [1] = second compound 0.0316 µM, first compound 0.00316 µM
# [2] = second compound 0.0316 µM, first compound 0.01 µM
# [3] = second compound 0.0316 µM, first compound 0.0316 µM
# [4] = second compound 0.0316 µM, first compound 0.1 µM
# [5] = second compound 0.0316 µM, first compound 0.316 µM
# [6] = second compound 0.0316 µM, first compound 1 µM
# [7] = second compound 0.1 µM, first compound 0.00316 µM
# [8] = second compound 0.1 µM, first compound 0.01 µM
# [9] = second compound 0.1 µM, first compound 0.0316 µM
# [10] = second compound 0.1 µM, first compound 0.1 µM
# [11] = second compound 0.1 µM, first compound 0.316 µM
# [12] = second compound 0.1 µM, first compound 1 µM
# [13] = second compound 0.316 µM, first compound 0.00316 µM
# [14] = second compound 0.316 µM, first compound 0.01 µM
# [15] = second compound 0.316 µM, first compound 0.0316 µM
# [16] = second compound 0.316 µM, first compound 0.1 µM
# [17] = second compound 0.316 µM, first compound 0.316 µM
# [18] = second compound 0.316 µM, first compound 1 µM
# [19] = second compound 1 µM, first compound 0.00316 µM
# [20] = second compound 1 µM, first compound 0.01 µM
# [21] = second compound 1 µM, first compound 0.0316 µM
# [22] = second compound 1 µM, first compound 0.1 µM
# [23] = second compound 1 µM, first compound 0.316 µM
# [24] = second compound 1 µM, first compound 1 µM
# [25] = second compound 3.16 µM, first compound 0.00316 µM
# [26] = second compound 3.16 µM, first compound 0.01 µM
# [27] = second compound 3.16 µM, first compound 0.0316 µM
# [28] = second compound 3.16 µM, first compound 0.1 µM
# [29] = second compound 3.16 µM, first compound 0.316 µM
# [30] = second compound 3.16 µM, first compound 1 µM
# [31] = second compound 10 µM, first compound 0.00316 µM
# [32] = second compound 10 µM, first compound 0.01 µM
# [33] = second compound 10 µM, first compound 0.0316 µM
# [34] = second compound 10 µM, first compound 0.1 µM
# [35] = second compound 10 µM, first compound 0.316 µM
# [36] = second compound 10 µM, first compound 1 µM
# [37] = second compound 0.0316 µM, first compound 3.16 µM
# [38] = second compound 0.0316 µM, first compound 10 µM
# [39] = second compound 0.1 µM, first compound 3.16 µM
# [40] = second compound 0.1 µM, first compound 10 µM
# [41] = second compound 0.316 µM, first compound 3.16 µM
# [42] = second compound 0.316 µM, first compound 10 µM
# [43] = second compound 1 µM, first compound 3.16 µM
# [44] = second compound 1 µM, first compound 10 µM
# [45] = second compound 3.16 µM, first compound 3.16 µM
# [46] = second compound 3.16 µM, first compound 10 µM
# [47] = second compound 10 µM, first compound 3.16 µM
# [48] = second compound 10 µM, first compound 10 µM
# 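Note: spheroids exposed to compounds for one week before readout.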
# 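Throughout, for viability, T/C: 100% = DMSO vehicle control wells.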
structure (smiles),measurement,setting,value
CCc1c2c(nc3ccc(O)cc13)-c1cc3c(c(=O)n1C2)COC(=O)[C@]3(O)CC + CNC(=O)c1ccc(Nc2nc(OC3CCCC3)c3c(-c4ccc5nc(C)oc5c4)c[nH]c3n2)c(OC)c1,IC50,second compound 0.0316 µM,< 3.16 nM
same,IC50,second compound 0.1 µM,4.57 nM
same,IC50,second compound 0.316 µM,< 3.16 nM
same,IC50,second compound 1 µM,< 3.16 nM
same,IC50,second compound 3.16 µM,< 3.16 nM
same,IC50,second compound 10 µM,< 3.16 nM
same,"viability, T/C",[1],45.2%
same,"viability, T/C",[2],30.2%
same,"viability, T/C",[3],23.5%
same,"viability, T/C",[4],17.9%
same,"viability, T/C",[5],8.37%
same,"viability, T/C",[6],1.73%
same,"viability, T/C",[7],59.9%
same,"viability, T/C",[8],28.5%
same,"viability, T/C",[9],18.2%
same,"viability, T/C",[10],16.5%
same,"viability, T/C",[11],8.07%
same,"viability, T/C",[12],3%
same,"viability, T/C",[13],34.3%
same,"viability, T/C",[14],29.1%
same,"viability, T/C",[15],16.8%
same,"viability, T/C",[16],13.8%
same,"viability, T/C",[17],6.27%
same,"viability, T/C",[18],1.02%
same,"viability, T/C",[19],34%
same,"viability, T/C",[20],20.6%
same,"viability, T/C",[21],10.7%
same,"viability, T/C",[22],8.46%
same,"viability, T/C",[23],2.97%
same,"viability, T/C",[24],0.31%
same,"viability, T/C",[25],31.6%
same,"viability, T/C",[26],16.2%
same,"viability, T/C",[27],12.2%
same,"viability, T/C",[28],6.75%
same,"viability, T/C",[29],4.2%
same,"viability, T/C",[30],0.54%
same,"viability, T/C",[31],29.3%
same,"viability, T/C",[32],19.5%
same,"viability, T/C",[33],11.5%
same,"viability, T/C",[34],5.96%
same,"viability, T/C",[35],2.11%
same,"viability, T/C",[36],0.68%
Cn1ncnc1[C@H]1c2n[nH]c(=O)c3cc(F)cc(c23)N[C@@H]1c1ccc(F)cc1 + CNC(=O)c1ccc(Nc2nc(OC3CCCC3)c3c(-c4ccc5nc(C)oc5c4)c[nH]c3n2)c(OC)c1,IC50,second compound 0.0316 µM,> 100 nM
same,IC50,second compound 0.1 µM,> 100 nM
same,IC50,second compound 0.316 µM,36.7 nM
same,IC50,second compound 1 µM,< 0.316 nM
same,IC50,second compound 3.16 µM,< 0.316 nM
same,IC50,second compound 10 µM,< 0.316 nM
same,"viability, T/C","second compound 0.0316 µM, first compound 0.000316 µM",78.7%
same,"viability, T/C","second compound 0.0316 µM, first compound 0.001 µM",102%
same,"viability, T/C",[1],84.3%
same,"viability, T/C",[2],96.9%
same,"viability, T/C",[3],90.4%
same,"viability, T/C",[4],82.6%
same,"viability, T/C","second compound 0.1 µM, first compound 0.000316 µM",96.5%
same,"viability, T/C","second compound 0.1 µM, first compound 0.001 µM",88.6%
same,"viability, T/C",[7],81.3%
same,"viability, T/C",[8],90.8%
same,"viability, T/C",[9],84.8%
same,"viability, T/C",[10],58.9%
same,"viability, T/C","second compound 0.316 µM, first compound 0.000316 µM",69.7%
same,"viability, T/C","second compound 0.316 µM, first compound 0.001 µM",65%
same,"viability, T/C",[13],70.4%
same,"viability, T/C",[14],77.9%
same,"viability, T/C",[15],51.4%
same,"viability, T/C",[16],40.5%
same,"viability, T/C","second compound 1 µM, first compound 0.000316 µM",46.1%
same,"viability, T/C","second compound 1 µM, first compound 0.001 µM",45.1%
same,"viability, T/C",[19],42.3%
same,"viability, T/C",[20],49.3%
same,"viability, T/C",[21],46%
same,"viability, T/C",[22],24.6%
same,"viability, T/C","second compound 3.16 µM, first compound 0.000316 µM",38.9%
same,"viability, T/C","second compound 3.16 µM, first compound 0.001 µM",31.4%
same,"viability, T/C",[25],38.4%
same,"viability, T/C",[26],42.6%
same,"viability, T/C",[27],38.6%
same,"viability, T/C",[28],28.7%
same,"viability, T/C","second compound 10 µM, first compound 0.000316 µM",33.4%
same,"viability, T/C","second compound 10 µM, first compound 0.001 µM",31.8%
same,"viability, T/C",[31],32.9%
same,"viability, T/C",[32],48%
same,"viability, T/C",[33],28.9%
same,"viability, T/C",[34],26.8%
Nc1ccn(C2OC(CO)C(O)C2(F)F)c(=O)n1 (stereo not drawn) + CNC(=O)c1ccc(Nc2nc(OC3CCCC3)c3c(-c4ccc5nc(C)oc5c4)c[nH]c3n2)c(OC)c1,IC50,second compound 0.0316 µM,< 31.6 nM
same,IC50,second compound 0.1 µM,< 31.6 nM
same,IC50,second compound 0.316 µM,< 31.6 nM
same,IC50,second compound 1 µM,< 31.6 nM
same,IC50,second compound 3.16 µM,< 31.6 nM
same,IC50,second compound 10 µM,< 31.6 nM
same,"viability, T/C",[3],21.3%
same,"viability, T/C",[4],9.39%
same,"viability, T/C",[5],10.4%
same,"viability, T/C",[6],12.7%
same,"viability, T/C",[37],10.1%
same,"viability, T/C",[38],7.91%
same,"viability, T/C",[9],25.7%
same,"viability, T/C",[10],7.76%
same,"viability, T/C",[11],9.74%
same,"viability, T/C",[12],9.84%
same,"viability, T/C",[39],9.52%
same,"viability, T/C",[40],7.25%
same,"viability, T/C",[15],25.4%
same,"viability, T/C",[16],8.69%
same,"viability, T/C",[17],7.46%
same,"viability, T/C",[18],11.1%
same,"viability, T/C",[41],8.56%
same,"viability, T/C",[42],6.75%
same,"viability, T/C",[21],29.1%
same,"viability, T/C",[22],8.29%
same,"viability, T/C",[23],5.33%
same,"viability, T/C",[24],7.16%
same,"viability, T/C",[43],6.13%
same,"viability, T/C",[44],8.82%
same,"viability, T/C",[27],19.2%
same,"viability, T/C",[28],6.89%
same,"viability, T/C",[29],6.64%
same,"viability, T/C",[30],7.3%
same,"viability, T/C",[45],6.33%
same,"viability, T/C",[46],4.72%
same,"viability, T/C",[33],18.2%
same,"viability, T/C",[34],9.83%
same,"viability, T/C",[35],3.87%
same,"viability, T/C",[36],5.96%
same,"viability, T/C",[47],4.8%
same,"viability, T/C",[48],3.11%
O=c1[nH]cc(F)c(=O)[nH]1 + CNC(=O)c1ccc(Nc2nc(OC3CCCC3)c3c(-c4ccc5nc(C)oc5c4)c[nH]c3n2)c(OC)c1,IC50,second compound 0.0316 µM,969 nM
same,IC50,second compound 0.1 µM,892 nM
same,IC50,second compound 0.316 µM,557 nM
same,IC50,second compound 1 µM,< 31.6 nM
same,IC50,second compound 3.16 µM,< 31.6 nM
same,IC50,second compound 10 µM,< 31.6 nM
same,"viability, T/C",[3],97.2%
same,"viability, T/C",[4],85.4%
same,"viability, T/C",[5],84.2%
same,"viability, T/C",[6],47.2%
same,"viability, T/C",[37],38.4%
same,"viability, T/C",[38],28%
same,"viability, T/C",[9],81.3%
same,"viability, T/C",[10],79.1%
same,"viability, T/C",[11],88%
same,"viability, T/C",[12],46.3%
same,"viability, T/C",[39],31%
same,"viability, T/C",[40],22%
same,"viability, T/C",[15],79.8%
same,"viability, T/C",[16],79.4%
same,"viability, T/C",[17],51.4%
same,"viability, T/C",[18],44.3%
same,"viability, T/C",[41],27.7%
same,"viability, T/C",[42],16.7%
same,"viability, T/C",[21],47.4%
same,"viability, T/C",[22],40.3%
same,"viability, T/C",[23],52.8%
same,"viability, T/C",[24],31.2%
same,"viability, T/C",[43],20.6%
same,"viability, T/C",[44],13.2%
same,"viability, T/C",[27],42.6%
same,"viability, T/C",[28],25%
same,"viability, T/C",[29],38.6%
same,"viability, T/C",[30],26.1%
same,"viability, T/C",[45],16.8%
same,"viability, T/C",[46],11.8%
same,"viability, T/C",[33],36.2%
same,"viability, T/C",[34],24.6%
same,"viability, T/C",[35],35.9%
same,"viability, T/C",[36],22.1%
same,"viability, T/C",[47],12.2%
same,"viability, T/C",[48],13.2%
